Counter-ions that a name gives are not always drawn. Like-named read-outs stand apart in the source and are kept apart here.
Columns and labels:
Assay in all cases: AK assay 384-well format, Prestwick library screening
K. pneumoniae = type: cell-based, Klebsiella pneumoniae; conditions: 50 μM final drug concentration; for fold induction at 50 µM: Klebsiella pneumoniae, 3 h
E. coli = type: cell-based, Escherichia coli; conditions: 50 μM final drug concentration; for fold induction at 50 µM: Escherichia coli, 3 h
E. faecium = type: cell-based, Enterococcus faecium; conditions: 50 μM final drug concentration; for fold induction at 50 µM: Enterococcus faecium, 3 h
E. cloacae = type: cell-based, Enterobacter cloacae; conditions: 50 μM final drug concentration; for fold induction at 50 µM: Enterobacter cloacae, 3 h
[1] = test system: A. baumannii strain 98-37-09; type: cell-based, Acinetobacter baumannii; conditions: 50 μM final drug concentration; for fold induction at 50 µM: Acinetobacter baumannii, 983709, 3 h
P. aeruginosa = type: cell-based, Pseudomonas aeruginosa; conditions: 50 μM final drug concentration; for fold induction at 50 µM: Pseudomonas aeruginosa, 3 h
[2] = test system: S. aureus strain USA300-0114; type: cell-based, Staphylococcus aureus; conditions: 50 μM final drug concentration; for fold induction at 50 µM: Staphylococcus aureus, USA300, 3 h
[3] = planktonic, cutoff for positive-scoring molecules 3-fold increase, read-out: AK-based Prestwick Library Screening Results, K. pneumoniae (fold increase in extracellular AK activity)
[4] = planktonic, cutoff for positive-scoring molecules 3-fold increase, read-out: AK-based Prestwick Library Screening Results, E. coli (fold increase in extracellular AK activity)
[5] = planktonic, cutoff for positive-scoring molecules 3-fold increase, read-out: AK-based Prestwick Library Screening Results, E. faecium (fold increase in extracellular AK activity)
[6] = planktonic, cutoff for positive-scoring molecules 3-fold increase, read-out: AK-based Prestwick Library Screening Results, E. cloacae (fold increase in extracellular AK activity)
[7] = planktonic, cutoff for positive-scoring molecules 3-fold increase, read-out: AK-based Prestwick Library Screening Results, A. baumannii (fold increase in extracellular AK activity)
[8] = planktonic, cutoff for positive-scoring molecules 3-fold increase, read-out: AK-based Prestwick Library Screening Results, P. aeruginosa (fold increase in extracellular AK activity)
[9] = planktonic, cutoff for positive-scoring molecules 3-fold increase, read-out: AK-based Prestwick Library Screening Results, S. aureus (fold increase in extracellular AK activity)
[10] = 384-well format, cutoff for positive-scoring molecules 3-fold increase, read-out: AK-based Prestwick Library Screening Results, K. pneumoniae (increase in extracellular AK activity)
[11] = 384-well format, cutoff for positive-scoring molecules 3-fold increase, read-out: AK-based Prestwick Library Screening Results, E. coli (increase in extracellular AK activity)
[12] = 384-well format, cutoff for positive-scoring molecules 3-fold increase, read-out: AK-based Prestwick Library Screening Results, E. faecium (increase in extracellular AK activity)
[13] = 384-well format, cutoff for positive-scoring molecules 3-fold increase, read-out: AK-based Prestwick Library Screening Results, E. cloacae (increase in extracellular AK activity)
[14] = 384-well format, cutoff for positive-scoring molecules 3-fold increase, read-out: AK-based Prestwick Library Screening Results, A. baumannii (increase in extracellular AK activity)
[15] = 384-well format, cutoff for positive-scoring molecules 3-fold increase, read-out: AK-based Prestwick Library Screening Results, P. aeruginosa (increase in extracellular AK activity)
[16] = 384-well format, cutoff for positive-scoring molecules 3-fold increase, read-out: AK-based Prestwick Library Screening Results, S. aureus (increase in extracellular AK activity)

C[C@]12CC[C@@H]3c4ccc(O)cc4CC[C@H]3[C@@H]1CC[C@@H]2O [Estradiol-17 beta]
AK-based Prestwick Library Screening Results, K. pneumoniae (increase in extracellular AK activity) (K. pneumoniae; planktonic K. pneumoniae, cutoff for positive-scoring molecules 3-fold increase): 0.8
AK-based Prestwick Library Screening Results, E. coli (increase in extracellular AK activity) (E. coli; planktonic E. coli, cutoff for positive-scoring molecules 3-fold increase): 1.1
AK-based Prestwick Library Screening Results, E. faecium (increase in extracellular AK activity) (E. faecium; planktonic E. faecium, cutoff for positive-scoring molecules 3-fold increase): 0.9
AK-based Prestwick Library Screening Results, E. cloacae (increase in extracellular AK activity) (E. cloacae; planktonic E. cloacae, cutoff for positive-scoring molecules 3-fold increase): 1.3
AK-based Prestwick Library Screening Results, A. baumannii (increase in extracellular AK activity) ([1]; planktonic A. baumannii, cutoff for positive-scoring molecules 3-fold increase): 0.8
AK-based Prestwick Library Screening Results, P. aeruginosa (increase in extracellular AK activity) (P. aeruginosa; planktonic P. aeruginosa, cutoff for positive-scoring molecules 3-fold increase): 1.0
AK-based Prestwick Library Screening Results, S. aureus (increase in extracellular AK activity) ([2]; planktonic S. aureus, cutoff for positive-scoring molecules 3-fold increase): 0.8

C[C@]12CC[C@@H]3c4ccc(O)cc4CC[C@H]3[C@@H]1C[C@@H](O)[C@@H]2O [Estriol]
fold induction at 50 µM (K. pneumoniae; planktonic K. pneumoniae, positive cutoff 3-fold increase, read-out: AK-based Prestwick library screening result, K. pneumoniae (fold increase in extracellular AK activity)): 0.8
fold induction at 50 µM (E. coli; planktonic E. coli, positive cutoff 3-fold increase, read-out: AK-based Prestwick library screening result, E. coli (fold increase in extracellular AK activity)): 1.1
fold induction at 50 µM (E. faecium; planktonic E. faecium, positive cutoff 3-fold increase, read-out: AK-based Prestwick library screening result, E. faecium (fold increase in extracellular AK activity)): 1.1
fold induction at 50 µM (E. cloacae; planktonic E. cloacae, positive cutoff 3-fold increase, read-out: AK-based Prestwick library screening result, E. cloacae (fold increase in extracellular AK activity)): 1.4
fold induction at 50 µM ([1]; planktonic A. baumannii, positive cutoff 3-fold increase, read-out: AK-based Prestwick library screening result, A. baumannii (fold increase in extracellular AK activity)): 1.2
fold induction at 50 µM (P. aeruginosa; planktonic P. aeruginosa, positive cutoff 3-fold increase, read-out: AK-based Prestwick library screening result, P. aeruginosa (fold increase in extracellular AK activity)): 1
fold induction at 50 µM ([2]; planktonic S. aureus, positive cutoff 3-fold increase, read-out: AK-based Prestwick library screening result, S. aureus (fold increase in extracellular AK activity)): 1.2

C[C@]12CC[C@@H]3c4ccc(O)cc4CC[C@H]3[C@@H]1CCC2=O [Estrone]
fold induction at 50 µM (K. pneumoniae; [3]): 0.7
fold induction at 50 µM (E. coli; [4]): 0.8
fold induction at 50 µM (E. faecium; [5]): 0.8
fold induction at 50 µM (E. cloacae; [6]): 1.4
fold induction at 50 µM [1, 7]: 0.8
fold induction at 50 µM (P. aeruginosa; [8]): 0.8
fold induction at 50 µM [2, 9]: 0.7

C[C@]12CC[C@@H]3c4ccc(OS(=O)(=O)O)cc4CC[C@H]3[C@@H]1CCC2=O [Estropipate]
fold induction at 50 µM (K. pneumoniae; [3]): 1
fold induction at 50 µM (E. coli; [4]): 1.1
fold induction at 50 µM (E. faecium; [5]): 1
fold induction at 50 µM (E. cloacae; [6]): 1.3
fold induction at 50 µM [1, 7]: 1
fold induction at 50 µM (P. aeruginosa; [8]): 1.1
fold induction at 50 µM [2, 9]: 1.1

O=C(Cn1ccnc1[N+](=O)[O-])NCCO [Etanidazole]
fold induction at 50 µM (K. pneumoniae; [3]): 0.5
fold induction at 50 µM (E. coli; [4]): 0.5
fold induction at 50 µM (E. faecium; [5]): 0.8
fold induction at 50 µM (E. cloacae; [6]): 0.4
fold induction at 50 µM [1, 7]: 0.5
fold induction at 50 µM (P. aeruginosa; [8]): 0.4
fold induction at 50 µM [2, 9]: 0.4

C=C(CC)C(=O)c1ccc(OCC(=O)O)c(Cl)c1Cl [Ethacrynic acid]
fold induction at 50 µM (K. pneumoniae; [10]): 0.6
fold induction at 50 µM (E. coli; [11]): 0.7
fold induction at 50 µM (E. faecium; [12]): 1.3
fold induction at 50 µM (E. cloacae; [13]): 0.8
fold induction at 50 µM [1, 14]: 0.8
fold induction at 50 µM (P. aeruginosa; [15]): 0.7
fold induction at 50 µM [2, 16]: 1.4

CC[C@@H](CO)NCCN[C@@H](CC)CO [Ethambutol dihydrochloride]
fold induction at 50 µM (K. pneumoniae; [10]): 0.7
fold induction at 50 µM (E. coli; [11]): 0.9
fold induction at 50 µM (E. faecium; [12]): 0.9
fold induction at 50 µM (E. cloacae; [13]): 1.1
fold induction at 50 µM [1, 14]: 0.8
fold induction at 50 µM (P. aeruginosa; [15]): 0.7
fold induction at 50 µM [2, 16]: 0.6

CCN(CC)C(=O)c1ccc(O)c(OC)c1 [Ethamivan]
fold induction at 50 µM (K. pneumoniae; planktonic K. pneumoniae, cutoff for positive-scoring molecules 3-fold increase, read-out: AK-based Prestwick Library Screening Results, K. pneumoniae (increase in extracellular AK activity)): 0.6
fold induction at 50 µM (E. coli; planktonic E. coli, cutoff for positive-scoring molecules 3-fold increase, read-out: AK-based Prestwick Library Screening Results, E. coli (increase in extracellular AK activity)): 0.6
fold induction at 50 µM (E. faecium; planktonic E. faecium, cutoff for positive-scoring molecules 3-fold increase, read-out: AK-based Prestwick Library Screening Results, E. faecium (increase in extracellular AK activity)): 1
fold induction at 50 µM (E. cloacae; planktonic E. cloacae, cutoff for positive-scoring molecules 3-fold increase, read-out: AK-based Prestwick Library Screening Results, E. cloacae (increase in extracellular AK activity)): 0.9
fold induction at 50 µM ([1]; planktonic A. baumannii, cutoff for positive-scoring molecules 3-fold increase, read-out: AK-based Prestwick Library Screening Results, A. baumannii (increase in extracellular AK activity)): 0.9
fold induction at 50 µM (P. aeruginosa; planktonic P. aeruginosa, cutoff for positive-scoring molecules 3-fold increase, read-out: AK-based Prestwick Library Screening Results, P. aeruginosa (increase in extracellular AK activity)): 0.6
fold induction at 50 µM ([2]; planktonic S. aureus, cutoff for positive-scoring molecules 3-fold increase, read-out: AK-based Prestwick Library Screening Results, S. aureus (increase in extracellular AK activity)): 0.6

O=S(=O)(O)c1cc(O)ccc1O [Ethamsylate]
fold induction at 50 µM (K. pneumoniae; planktonic K. pneumoniae, […], read-out: AK-based Prestwick library screening result, K. pneumoniae (fold increase in extracellular AK activity)): 1.1
fold induction at 50 µM (E. coli; planktonic E. coli, […], read-out: AK-based Prestwick library screening result, E. coli (fold increase in extracellular AK activity)): 1.2
fold induction at 50 µM (E. faecium; planktonic E. faecium, […], read-out: AK-based Prestwick library screening result, E. faecium (fold increase in extracellular AK activity)): 0.9
fold induction at 50 µM (E. cloacae; planktonic E. cloacae, […], read-out: AK-based Prestwick library screening result, E. cloacae (fold increase in extracellular AK activity)): 0.8
fold induction at 50 µM ([1]; planktonic A. baumannii, […], read-out: AK-based Prestwick library screening result, A. baumannii (fold increase in extracellular AK activity)): 1.2
fold induction at 50 µM (P. aeruginosa; planktonic P. aeruginosa, […], read-out: AK-based Prestwick library screening result, P. aeruginosa (fold increase in extracellular AK activity)): 1
fold induction at 50 µM ([2]; planktonic S. aureus, […], read-out: AK-based Prestwick library screening result, S. aureus (fold increase in extracellular AK activity)): 1

CCOc1ccc(Cc2nccc3cc(OCC)c(OCC)cc23)cc1OCC [Ethaverine hydrochloride]
fold induction at 50 µM (K. pneumoniae; [3]): 0.7
fold induction at 50 µM (E. coli; [4]): 0.9
fold induction at 50 µM (E. faecium; [5]): 1
fold induction at 50 µM (E. cloacae; [6]): 1
fold induction at 50 µM [1, 7]: 0.9
fold induction at 50 µM (P. aeruginosa; [8]): 0.9
fold induction at 50 µM [2, 9]: 0.5

Reference: patent publication US10004701B2, “Methods and compositions for treating infection” (UNIVERSITY OF ROCHESTER, priority 2012, dated 2018)
